Data published in PMC5843811, “^44Sc for labeling of DOTA- and NODAGA-functionalized peptides: preclinical in vitro and in vivo investigations” (EJNMMI Radiopharmacy and Chemistry, 2016).
Read-outs that look alike come from different tables or passages of the source.

Assays:
[1] = Biodistribution in U87MG tumor-bearing mice; type: in vivo; settings: female, CD-1 nude (athymic nude), mouse, iv, total radioactivity, i.v. ~5 MBq (~1 nmol), mean ± SD; for tissue to tissue ratio at 0.5 h / tissue uptake at 0.5 h: 30 min p.i.; for tissue to tissue ratio at 5 h / tissue uptake at 5 h: 5 h p.i.
Experimental: Female athymic nude mice (CD-1 nude), age 5–6 weeks, were obtained from Charles River Laboratories, Sulzfeld, Germany. U87MG cells and AR42J-cells were suspended in PBS (5 × 10^6 cells in 100 μL) and subcutaneously inoculated on each shoulder. Two to three weeks later, when the tumor reached a size of about 300–500 mm^3, the mice were used for the in vivo studies.
Biodistribution studies were performed with U87MG tumor and AR42J tumor-bearing mice 2 weeks after tumor cell inoculation. ^44Sc- and ^68Ga-labeled peptides (~5 MBq, ~1 nmol per mouse) were intravenously injected in a volume of 100–200 μL. Mice were sacrificed at 30 min, 2 h and 5 h after injection (p.i.) of the ^44Sc-labeled peptides. Mice which were injected with ^68Ga-labeled peptides were sacrificed at 30 min and 2 h p.i. Selected tissues and organs were collected, weighed, and counted for radioactivity using a γ-counter (Wallac Wizard 1480, Perkin Elmer). The results were listed as a percentage of the injected activity per gram of tissue mass (% IA/g), using counts of a defined volume of the original injection solution counted at the same time. The data were analyzed for significance using a two-way ANOVA test (Graph Pad Prism 6 software, version 6.05). A p-value of < 0.05 was considered statistically significant.

[2] = system: U87MG tumor-bearing mice; assay: PET/CT imaging of U87MG tumor-bearing mice; type: in vivo; settings: 3 h after i.v. injection of ~10 MBq (~1 nmol), one or two mice
Experimental: The energy window was set to 150–650 keV. […] All static PET scans lasted for 20 min.

[3] = U87MG tumor / blood, n=3, read-out: Tumor-to-blood ratio
[4] = U87MG tumor / kidneys, n=3, read-out: Tumor-to-kidney ratio
[5] = U87MG tumor / liver, n=3, read-out: Tumor-to-liver ratio
[6] = U87MG tumor, n=3, read-out: Biodistribution, U87MG Tumor
[7] = blood, 5 MBq per mouse, n=3, read-out: Biodistribution, Blood
[8] = bone, 5 MBq per mouse, n=3, read-out: Biodistribution, Bone
[9] = brain, 5 MBq per mouse, n=3, read-out: Biodistribution, Brain
[10] = heart, 5 MBq per mouse, n=3, read-out: Biodistribution, Heart
[11] = intestines, 5 MBq per mouse, n=3, read-out: Biodistribution, Intestines
[12] = kidneys, n=3, read-out: Biodistribution, Kidneys
[13] = liver, n=3, read-out: Biodistribution, Liver
[14] = lung, 5 MBq per mouse, n=3, read-out: Biodistribution, Lung
[15] = muscle, 5 MBq per mouse, n=3, read-out: Biodistribution, Muscle
[16] = skin, 5 MBq per mouse, n=3, read-out: Biodistribution, Skin
[17] = spleen, 5 MBq per mouse, n=3, read-out: Biodistribution, Spleen
[18] = stomach, 5 MBq per mouse, n=3, read-out: Biodistribution, Stomach

tissue to tissue ratio at 0.5 h [1, 3]: 4.73 ± 1.24 | tissue to tissue ratio at 5 h [1, 3]: 30.5 ± 9.93 | tissue to tissue ratio at 0.5 h [1, 4]: 1.18 ± 0.28 | tissue to tissue ratio at 2 h ([1]; U87MG tumor / kidneys, 2 h p.i., n=3, read-out: Tumor-to-kidney ratio): 2.68 ± 0.14 | tissue to tissue ratio at 5 h [1, 4]: 2.58 ± 0.24 | tissue to tissue ratio at 0.5 h [1, 5]: 3.02 ± 0.4 | tissue to tissue ratio at 5 h [1, 5]: 2.82 ± 0.21 | tissue uptake at 0.5 h [1, 6]: 4.5 ± 0.77 %ID/g | tissue uptake at 5 h [1, 6]: 3.01 ± 0.55 %ID/g | tissue uptake at 0.5 h [1, 7]: 0.98 ± 0.21 %ID/g | tissue uptake at 5 h [1, 7]: 0.11 ± 0.07 %ID/g | tissue uptake at 0.5 h [1, 8]: 1.53 ± 0.16 %ID/g | tissue uptake at 5 h [1, 8]: 0.76 ± 0.03 %ID/g | tissue uptake at 0.5 h [1, 9]: 0.1 ± 0.01 %ID/g | tissue uptake at 5 h [1, 9]: 0.06 ± 0.01 %ID/g | tissue uptake at 0.5 h [1, 10]: 0.89 ± 0.13 %ID/g | tissue uptake at 2 h ([1]; heart, 5 MBq per mouse, 2 h p.i., n=3, read-out: Biodistribution, Heart): 0.44 ± 0.04 %ID/g | tissue uptake at 5 h [1, 10]: 0.35 ± 0.13 %ID/g | tissue uptake at 0.5 h [1, 11]: 1.76 ± 0.22 %ID/g | tissue uptake at 2 h ([1]; intestines, 5 MBq per mouse, 2 h p.i., n=3, read-out: Biodistribution, Intestines): 0.91 ± 0.16 %ID/g | tissue uptake at 5 h [1, 11]: 0.75 ± 0.13 %ID/g | tissue uptake at 2 h ([1]; kidneys, 5 MBq per mouse, 2 h p.i., n=3, read-out: Biodistribution, Kidneys): 1.5 ± 0.3 %ID/g | tissue uptake at 0.5 h [1, 12]: 3.89 ± 0.68 %ID/g | tissue uptake at 5 h [1, 12]: < 2 %ID/g | tissue uptake at 0.5 h [1, 13]: 1.49 ± 0.06 %ID/g | tissue uptake at 2 h ([1]; liver, 2 h p.i., n=3, read-out: Biodistribution, Liver): 1.34 ± 0.27 %ID/g | tissue uptake at 5 h [1, 13]: ~1 %ID/g | tissue uptake at 0.5 h [1, 14]: 2.2 ± 0.68 %ID/g | tissue uptake at 5 h [1, 14]: 0.65 ± 0.16 %ID/g | tissue uptake at 0.5 h [1, 15]: 0.68 ± 0.03 %ID/g | tissue uptake at 5 h [1, 15]: 0.3 ± 0.06 %ID/g | tissue uptake at 2 h ([1]; pancreas, 5 MBq per mouse, 2 h p.i., n=3, read-out: Biodistribution, pancreas): 0.43 ± 0.04 %ID/g | tissue uptake at 5 h ([1]; pancreas, 5 MBq per mouse, n=3, read-out: Biodistribution, pancreas): 0.37 ± 0.07 %ID/g | tissue uptake at 0.5 h ([1]; pancreas, n=3, read-out: Biodistribution, pancreas): 0.73 ± 0.22 %ID/g | tissue uptake at 0.5 h [1, 16]: 1.97 ± 0.17 %ID/g | tissue uptake at 2 h ([1]; skin, 5 MBq per mouse, 2 h p.i., n=3, read-out: Biodistribution, Skin): 1.3 ± 0.13 %ID/g | tissue uptake at 5 h [1, 16]: 1.21 ± 0.34 %ID/g | tissue uptake at 0.5 h [1, 17]: 1.63 ± 0.21 %ID/g | tissue uptake at 2 h ([1]; spleen, 5 MBq per mouse, 2 h p.i., n=3, read-out: Biodistribution, Spleen): 1.58 ± 0.31 %ID/g | tissue uptake at 5 h [1, 17]: 0.95 ± 0.19 %ID/g | tissue uptake at 0.5 h [1, 18]: 1.69 ± 0.16 %ID/g | tissue uptake at 2 h ([1]; stomach, 5 MBq per mouse, 2 h p.i., n=3, read-out: Biodistribution, Stomach): 1.01 ± 0.32 %ID/g | tissue uptake at 5 h [1, 18]: 0.8 ± 0.03 %ID/g
SMILES: N=C(N)NCCC[C@@H]1NC(=O)[C@H](CCCCNC(=O)CCC(C(=O)O)N2CCN(CC(=O)O)CCN(CC(=O)O)CC2)NC(=O)[C@@H](Cc2ccc(O)cc2)NC(=O)[C@H](CC(=O)O)NC(=O)CNC1=O (some centres unmarked) [^44Sc-NODAGA-RGD, metal not drawn]
PET/CT distribution of radioactivity (in words) [2]: comparable to ^68Ga-NODAGA-RGD but showed somewhat more background activity in the abdominal tract
